Test results from patent US20230219965A1 (KSQ Therapeutics, Inc., priority 2020, published 2023).
Where two headings read alike, the source gives them in different places.

Columns and labels:
[1] = Liver microsomal metabolic stability, rat liver microsomes (RLM); settings: 1 μM compound, 1 mg/mL microsomes, NADPH; for half-life at 1 μM: rat, liver microsomes, t1/2 (min) in RLM
[2] = Liver microsomal metabolic stability, human liver microsomes (HLM); settings: for half-life at 1 μM: human, liver microsomes
[3] = ADME solubility determination in PBS at pH 2.0 and pH 7.4; type: physicochemical; settings: for solubility at 24 h: phosphate buffered saline, 25 °C, thermodynamic from solid
Summary of the method: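 Solubility was read by LC-MS/MS on centrifuged supernatants, calibrated to a known-concentration standard and corrected for dilution. Compound, dried down from 10 mM DMSO stock, was equilibrated 24 h at 25° C with shaking in PBS at pH 2.0 or pH 7.4.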

USP1/UAF1 enzyme = USP1/UAF1 enzyme (Homo sapiens, UniProt O94782); test: USP1/UAF1 deubiquitination assay (ubiquitin-rhodamine 110 substrate); type: biochemical; settings: read-out: USP1 IC50 (Ub-Rho)
Summary of the method: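 Cleavage of 150 nM ubiquitin-rhodamine 110 by 0.05 nM USP1/UAF1 was followed as fluorescence (Ex480/Em540, kinetic, 30 min) in Tris-HCl pH 7.8 buffer with EDTA, BSA, DTT and Tween-20. Compounds, top 10 μM, were preincubated with enzyme 10 min; % inhibition against no-enzyme and DMSO wells gave four-parameter IC50s.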

[4] = test system: Ub-PCNA levels in the nucleus of ES2 cells (USP1 activity); test: ES2 Ub-PCNA immunofluorescence (IF) assay; type: cell-based; settings: ES2 cells, 3 hours, Ub-PCNA immunofluorescence, read-out: USP1 IC50 (Ub-PCNA)
Summary of the method: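 AC50 derived from percent Ub-PCNA-positive nuclei, positivity set by a 95% cutoff from untreated-well intensities. Readout by imaging immunofluorescence (anti-Ub-PCNA, DAPI nuclear mask) after methanol fixation. Compound exposure: 3 h at 37° C, 0.3% DMSO final, on cells plated overnight.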

[5] = pH 2, aqueous buffer, PBS pH 2.0, 25° C., read-out: Solubility at pH 2.0
[6] = pH 7.4, aqueous buffer, PBS pH 7.4, 25° C., read-out: Solubility at pH 7.4

Chain of USP1/UAF1 enzyme (O94782 whole entry): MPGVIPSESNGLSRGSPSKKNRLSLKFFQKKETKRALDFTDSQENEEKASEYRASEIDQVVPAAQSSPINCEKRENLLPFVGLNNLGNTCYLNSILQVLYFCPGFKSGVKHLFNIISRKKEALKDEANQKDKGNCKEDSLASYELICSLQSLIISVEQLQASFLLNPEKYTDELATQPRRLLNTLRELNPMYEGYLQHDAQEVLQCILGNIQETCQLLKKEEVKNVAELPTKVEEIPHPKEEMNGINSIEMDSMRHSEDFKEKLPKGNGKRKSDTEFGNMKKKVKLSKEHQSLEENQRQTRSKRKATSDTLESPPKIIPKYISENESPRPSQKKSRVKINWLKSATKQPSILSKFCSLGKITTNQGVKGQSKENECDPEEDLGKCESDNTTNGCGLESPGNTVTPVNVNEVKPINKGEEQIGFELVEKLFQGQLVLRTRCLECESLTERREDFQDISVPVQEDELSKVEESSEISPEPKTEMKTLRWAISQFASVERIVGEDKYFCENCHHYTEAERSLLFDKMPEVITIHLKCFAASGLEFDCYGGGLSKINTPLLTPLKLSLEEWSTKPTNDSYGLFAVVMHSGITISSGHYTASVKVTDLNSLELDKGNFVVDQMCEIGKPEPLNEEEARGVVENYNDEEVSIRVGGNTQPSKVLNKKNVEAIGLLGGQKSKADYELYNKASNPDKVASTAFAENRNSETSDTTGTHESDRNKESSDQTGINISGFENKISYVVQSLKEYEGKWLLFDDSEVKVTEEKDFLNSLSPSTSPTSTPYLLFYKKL
Chain of USP1/UAF1 enzyme (Q8TAF3 whole entry partner): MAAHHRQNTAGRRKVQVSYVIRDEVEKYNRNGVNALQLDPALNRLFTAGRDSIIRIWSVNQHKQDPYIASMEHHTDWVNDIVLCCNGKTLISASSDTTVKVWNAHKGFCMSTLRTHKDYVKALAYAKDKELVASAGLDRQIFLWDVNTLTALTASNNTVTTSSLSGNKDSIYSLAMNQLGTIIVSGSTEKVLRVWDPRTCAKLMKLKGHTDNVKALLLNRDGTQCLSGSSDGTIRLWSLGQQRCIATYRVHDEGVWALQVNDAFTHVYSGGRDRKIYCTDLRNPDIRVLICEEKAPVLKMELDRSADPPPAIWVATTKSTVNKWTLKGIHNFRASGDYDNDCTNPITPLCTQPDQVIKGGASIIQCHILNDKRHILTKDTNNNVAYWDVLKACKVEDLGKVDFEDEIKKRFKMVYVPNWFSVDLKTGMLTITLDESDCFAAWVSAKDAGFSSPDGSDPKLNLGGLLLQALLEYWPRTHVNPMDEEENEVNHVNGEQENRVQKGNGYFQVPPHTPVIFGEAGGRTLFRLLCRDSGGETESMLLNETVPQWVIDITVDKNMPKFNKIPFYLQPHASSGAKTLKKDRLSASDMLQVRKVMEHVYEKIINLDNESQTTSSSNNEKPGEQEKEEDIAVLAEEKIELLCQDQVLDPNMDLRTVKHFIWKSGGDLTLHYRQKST

Structure (SMILES) | half-life at 1 μM [1] | half-life at 1 μM [2] | solubility at 24 h [3, 5] | solubility at 24 h [3, 6] | IC50 (USP1/UAF1 enzyme) | IC50 ([4]; Homo sapiens, ES-2) | t1/2 (min) in RLM [1] | t1/2 (min) in HLM ([2]; human liver microsomes, 1 μM compound, 1 mg/mL microsomes, NADPH) | Solubility at pH 2.0 (μM) ([3]; PBS pH 2.0, 25° C., 24 hours) | Solubility at pH 7.4 (μM) ([3]; PBS pH 7.4, 25° C., 24 hours) | IC50 [4]
Cc1cnn(C(C)C)c1-c1nc2n(n1)CCCN2Cc1ccc(-c2nc(C(F)(F)F)cn2C(C)C)cc1 [Example 222, 4-(4-(1-isopropyl-4-(trifluoromethyl)-1H-imidazol-2-yl)benzyl)-2-(1-isopropyl-4-methyl-1H-pyrazol-5-yl)-4,5,6,7-tetrahydro-[1,2,4]triazolo[1,5-a]pyrimidine] | < 25 min | < 25 min | ≥ 10 µM | < 10 µM | < 100 nM | < 100 nM | – | – | – | – | –
CC(C)n1ncc(Cl)c1-c1cc2n(n1)CC(C)(O)C(=O)N2Cc1ccc(-c2nc(C(F)(F)F)cn2C)cc1 (stereo not drawn) [Example 232, 2-(4-chloro-1-isopropyl-1H-pyrazol-5-yl)-6-hydroxy-6-methyl-4-(4-(1-methyl-4-(trifluoromethyl)-1H-imidazol-2-yl)benzyl)-6,7-dihydropyrazolo[1,5-α]pyrimidin-5(4H)-one] | > 25 min | > 25 min | < 10 µM | < 10 µM | 100 to 500 nM | 100 to 500 nM | – | – | – | – | –
CCn1cc(C(F)(F)F)nc1-c1ccc(CN2C(=O)C(N)Cn3nc(-c4c(Cl)cnn4C(C)C)cc32)cc1 (stereo not drawn) [Example 233, 6-amino-2-(4-chloro-1-isopropyl-1H-pyrazol-5-yl)-4-(4-(1-ethyl-4-(trifluoromethyl)-1H-imidazol-2-yl)benzyl)-6,7-dihydropyrazolo[1,5-α]pyrimidin-5(4H)-one] | – | – | – | – | < 100 nM | – | ++ (“++” indicates 25 minutes greater) | ++ (“++” indicates 25 minutes greater) | ++ (“++” indicates 10 μM or greater) | + (“+” indicates less than 10 μM) | 100 to 500 nM
CCn1cc(C(F)(F)F)nc1-c1ccc(NC2CCCn3nc(-c4c(OC)ncnc4C4CC4)cc32)cc1 (stereo not drawn) [Example 240, 2-(4-cyclopropyl-6-methoxypyrimidin-5-yl)-N-(4-(1-ethyl-4-(trifluoromethyl)-1H-imidazol-2-yl)phenyl)-4,5,6,7-tetrahydropyrazolo[1,5-a]pyridin-4-amine] | > 25 min | > 25 min | ≥ 10 µM | < 10 µM | < 100 nM | < 100 nM | – | – | – | – | –
CCn1cc(C(F)(F)F)nc1-c1ccc(NC2CCCn3nc(-c4c(Cl)cnn4C(C)C)cc32)cc1F (stereo not drawn) [Example 241, 2-(4-chloro-1-isopropyl-1H-pyrazol-5-yl)-N-(4-(1-ethyl-4-(trifluoromethyl)-1H-imidazol-2-yl)-3-fluorophenyl)-4,5,6,7-tetrahydropyrazolo[1,5-a]pyridin-4-amine] | > 25 min | > 25 min | < 10 µM | < 10 µM | < 100 nM | 100 to 500 nM | – | – | – | – | –
Cc1cc(C(F)(F)F)nn1-c1ccc(NC2CCCn3nc(-c4c(Cl)cnn4C(C)C)cc32)cc1 (stereo not drawn) [Example 244, 2-(4-chloro-1-isopropyl-1H-pyrazol-5-yl)-N-(4-(5-methyl-3-(trifluoromethyl)-1H-pyrazol-1-yl)phenyl)-4,5,6,7-tetrahydropyrazolo[1,5-a]pyridin-4-amine] | > 25 min | > 25 min | < 10 µM | < 10 µM | < 100 nM | < 100 nM | – | – | – | – | –
CCn1cc(C(F)(F)F)nc1-c1ccc(NC2CCCn3nc(-c4c(Cl)cnn4C(C)C)cc32)cn1 (stereo not drawn) [Example 245, 2-(4-chloro-1-isopropyl-1H-pyrazol-5-yl)-N-(6-(1-ethyl-4-(trifluoromethyl)-1H-imidazol-2-yl)pyridin-3-yl)-4,5,6,7-tetrahydropyrazolo[1,5-a]pyridin-4-amine] | > 25 min | > 25 min | < 10 µM | < 10 µM | < 100 nM | 100 to 500 nM | – | – | – | – | –
CCn1cc(C(F)(F)F)nc1-c1ccc(NC2CCCn3nc(-c4c(Cl)cnn4C(C)C)cc32)cc1OC (stereo not drawn) [Example 246, 2-(4-chloro-1-isopropyl-1H-pyrazol-5-yl)-N-(4-(1-ethyl-4-(trifluoromethyl)-1H-imidazol-2-yl)-3-methoxyphenyl)-4,5,6,7-tetrahydropyrazolo[1,5-a]pyridin-4-amine] | > 25 min | > 25 min | ≥ 10 µM | < 10 µM | < 100 nM | 100 to 500 nM | – | – | – | – | –
CCn1cc(C(F)(F)F)nc1-c1ccc(NC2CCCn3nc(-c4c(OC(F)F)ncnc4C4CC4)cc32)cc1 (stereo not drawn) [Example 250, 2-(4-cyclopropyl-6-(difluoromethoxy)pyrimidin-5-yl)-N-(4-(1-ethyl-4-(trifluoromethyl)-1H-imidazol-2-yl)phenyl)-4,5,6,7-tetrahydropyrazolo[1,5-a]pyridin-4-amine] | > 25 min | > 25 min | < 10 µM | < 10 µM | < 100 nM | < 100 nM | – | – | – | – | –
CCn1cc(C(F)(F)F)nc1-c1ccc(NC2CCCn3nc(-c4c(Cl)cnn4C(C)C)cc32)cc1C#N (stereo not drawn) [Example 255, 5-((2-(4-chloro-1-isopropyl-1H-pyrazol-5-yl)-4,5,6,7-tetrahydropyrazolo[1,5-a]pyridin-4-yl)amino)-2-(1-ethyl-4-(trifluoromethyl)-1H-imidazol-2-yl)benzonitrile] | < 25 min | > 25 min | < 10 µM | < 10 µM | < 100 nM | 100 to 500 nM | – | – | – | – | –

The remaining lines, values ahead:

half-life at 1 μM [1] | half-life at 1 μM [2] | solubility at 24 h [3, 5] | solubility at 24 h [3, 6] | IC50 (USP1/UAF1 enzyme) | IC50 ([4]; Homo sapiens, ES-2) | t1/2 (min) in RLM [1] | t1/2 (min) in HLM ([2]; human liver microsomes, 1 μM compound, 1 mg/mL microsomes, NADPH) | Solubility at pH 2.0 (μM) ([3]; PBS pH 2.0, 25° C., 24 hours) | Solubility at pH 7.4 (μM) ([3]; PBS pH 7.4, 25° C., 24 hours) | IC50 [4] | Structure (SMILES)
< 25 min | < 25 min | ≥ 10 µM | < 10 µM | < 100 nM | 100 to 500 nM | – | – | – | – | – | CCn1cc(C(F)(F)F)nc1-c1ccc(CN2C(=O)C(N(C)C)Cn3nc(-c4c(Cl)cnn4C(C)C)cc32)cc1 (stereo not drawn) [Example 235, 2-(4-chloro-1-isopropyl-1H-pyrazol-5-yl)-6-(dimethylamino)-4-(4-(1-ethyl-4-(trifluoromethyl)-1H-imidazol-2-yl)benzyl)-6,7-dihydropyrazolo[1,5-α]pyrimidin-5(4H)-one]
< 25 min | < 25 min | ≥ 10 µM | < 10 µM | 100 to 500 nM | > 500 nM | – | – | – | – | – | CCn1cc(C(F)(F)F)nc1-c1ccc(CN2C(=O)C(NC)Cn3nc(-c4c(Cl)cnn4C(C)C)cc32)cc1 (stereo not drawn) [Example 236, 2-(4-chloro-1-isopropyl-1H-pyrazol-5-yl)-4-(4-(1-ethyl-4-(trifluoromethyl)-1H-imidazol-2-yl)benzyl)-6-(methylamino)-6,7-dihydropyrazolo[1,5-α]pyrimidin-5(4H)-one]
< 25 min | > 25 min | < 10 µM | < 10 µM | < 100 nM | < 100 nM | – | – | – | – | – | CCn1cc(C(F)(F)F)nc1-c1ccc(NC2CCCn3nc(-c4c(Cl)cnn4C(C)C)cc32)cc1 (stereo not drawn) [Example 237, 2-(4-chloro-1-isopropyl-1H-pyrazol-5-yl)-N-(4-(1-ethyl-4-(trifluoromethyl)-1H-imidazol-2-yl)phenyl)-4,5,6,7-tetrahydropyrazolo[1,5-α]pyridin-4-amine]
< 25 min | < 25 min | < 10 µM | < 10 µM | < 100 nM | 100 to 500 nM | – | – | – | – | – | CCn1cc(C#N)nc1-c1ccc(NC2CCCn3nc(-c4c(Cl)cnn4C(C)C)cc32)cc1 (stereo not drawn) [Example 247, 2-(4-((2-(4-chloro-1-isopropyl-1H-pyrazol-5-yl)-4,5,6,7-tetrahydropyrazolo[1,5-a]pyridin-4-yl)amino)phenyl)-1-ethyl-1H-imidazole-4-carbonitrile]
> 25 min | > 25 min | ≥ 10 µM | ≥ 10 µM | < 100 nM | < 100 nM | – | – | – | – | – | COc1ncnc(C2CC2)c1-c1cc2n(n1)CCCC2Nc1ccc(-c2nc(C(F)(F)F)cn2C(C)CF)cc1 (stereo not drawn) [Example 248, 2-(4-cyclopropyl-6-methoxypyrimidin-5-yl)-N-(4-(1-(1-fluoropropan-2-yl)-4-(trifluoromethyl)-1H-imidazol-2-yl)phenyl)-4,5,6,7-tetrahydropyrazolo[1,5-a]pyridin-4-amine]
> 25 min | > 25 min | < 10 µM | < 10 µM | < 100 nM | < 100 nM | – | – | – | – | – | CC(CF)n1cc(C(F)(F)F)nc1-c1ccc(NC2CCCn3nc(-c4c(OC(F)F)ncnc4C4CC4)cc32)cc1 (stereo not drawn) [Example 249, 2-(4-cyclopropyl-6-(difluoromethoxy)pyrimidin-5-yl)-N-(4-(1-(1-fluoropropan-2-yl)-4-(trifluoromethyl)-1H-imidazol-2-yl)phenyl)-4,5,6,7-tetrahydropyrazolo[1,5-a]pyridin-4-amine]
